Results reported in patent US10583143B2, “Methods and compositions for the treatment or prevention of abnormal bone formation in a soft tissue” (THE BRIGHAM AND WOMEN'S HOSPITAL, INC., priority 2015, dated 2020).
Entries after “also recorded” stand apart in the source; their conditions may differ.

What was measured:
ALK4/ACVR1B = target: T1, ALK4/ACVR1B (Homo sapiens, UniProt P36896); experiment: CAGA-Luc luciferase reporter in HEK293 cells driven by constitutively active ALK4; format: cell-based; settings: Ad.caALK4, read-out: IC50 inhibition of caALK4 activity (CAGA-Luc)
T1 sequence (P36896 1-505 T206D): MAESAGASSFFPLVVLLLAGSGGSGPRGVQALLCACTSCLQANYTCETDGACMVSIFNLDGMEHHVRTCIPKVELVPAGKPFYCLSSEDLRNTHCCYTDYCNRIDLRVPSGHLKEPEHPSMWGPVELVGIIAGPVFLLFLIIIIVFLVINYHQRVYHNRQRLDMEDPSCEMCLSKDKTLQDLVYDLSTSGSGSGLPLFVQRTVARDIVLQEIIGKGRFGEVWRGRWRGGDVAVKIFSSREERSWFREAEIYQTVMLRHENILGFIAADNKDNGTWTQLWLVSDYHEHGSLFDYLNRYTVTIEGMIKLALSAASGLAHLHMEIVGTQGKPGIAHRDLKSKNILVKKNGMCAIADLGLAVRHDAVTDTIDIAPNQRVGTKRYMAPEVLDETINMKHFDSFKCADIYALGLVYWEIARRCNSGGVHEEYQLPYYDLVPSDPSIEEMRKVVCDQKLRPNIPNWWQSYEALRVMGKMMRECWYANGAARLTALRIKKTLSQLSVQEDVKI
Protocol: (§1) Inhibition of BMP-mediated gene transcription was measured via the activity of a BMP-response element luciferase reporter (BRE-Luc) stably expressed in the C2C12 cell line as a measure of BMP signaling inhibition, with gene expression being driven by constitutively active (ca-) forms of BMP type I receptors ALK1, ALK2, and ALK3 (FIG. 1). This was measured in comparison to the inhibition of TGF-β or Activin signaling via CAGA-Luc reporter construct stably expressed in HEK293 cells, with gene expression being driven by constitutively active (ca-) forms of Activin/TGF=β type I receptors ALK4 or ALK5 (FIG. 1). […]. C2C12 myofibroblast cells stably expressing firefly luciferase under the control of BMP-responsive promoter element (BRE-Luc) were generously provided by Dr. Peter ten Dijke (Leiden University Medical Center, NL). Human embryonic kidney 293T cells stably transfected with the TGF-β-responsive element fused to luciferase gene (CAGA-Luc) were a kind gift of Dr. Howard Weiner (Brigham and Women's Hospital, Boston, Mass.). […] Media was discarded and firefly luciferase activity was measured (Promega™) according to manufacturer's protocol. Light output was measured using a Spectramax™ L luminometer (Molecular Devices™) with an integration time of one second per well. […]

ALK5/TGFBR1 = target: T2, ALK5/TGFBR1 (Homo sapiens, UniProt P36897, T204D); experiment: CAGA-Luc luciferase reporter in HEK293 cells driven by constitutively active ALK5; format: cell-based; settings: Ad.caALK5, read-out: IC50 inhibition of caALK5 activity (CAGA-Luc)
T2 construct: expressed in transfected cells; host or cells: 293T CAGA-Luc cells infected with Ad.caALK5 (gift of Dr. Akiko Hata)
T2 sequence (P36897 34-503 T204D): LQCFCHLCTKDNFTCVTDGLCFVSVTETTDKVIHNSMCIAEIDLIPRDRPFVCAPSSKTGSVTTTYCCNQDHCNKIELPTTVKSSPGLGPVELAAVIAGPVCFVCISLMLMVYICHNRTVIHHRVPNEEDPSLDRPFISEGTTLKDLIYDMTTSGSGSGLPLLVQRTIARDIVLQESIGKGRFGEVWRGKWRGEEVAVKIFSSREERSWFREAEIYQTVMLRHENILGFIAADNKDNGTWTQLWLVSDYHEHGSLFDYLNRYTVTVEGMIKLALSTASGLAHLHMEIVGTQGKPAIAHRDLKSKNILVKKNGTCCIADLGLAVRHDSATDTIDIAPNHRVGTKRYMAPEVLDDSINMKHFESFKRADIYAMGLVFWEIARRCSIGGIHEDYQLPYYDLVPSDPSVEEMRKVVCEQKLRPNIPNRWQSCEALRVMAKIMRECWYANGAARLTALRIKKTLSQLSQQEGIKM
Protocol: as §1

[1] = 60 mg to 250 mg p.o. per day; cited from earlier work
[2] = tested on: constitutively activated ALK1-5; experiment: Cell-based luciferase reporter assays with constitutively activated ALK1-5, potency comparison; settings: ALK1-5, BRE-Luc / CAGA-Luc
Text: […]. Inhibition curves of BMP and TGF-β transcriptional activity mediated by constitutively activated ALK1-5 in a cell-based luciferase reporter assays. […]. Data shown are representative of more than 3 independent experiments, with data plotted as mean±S.E.M. (n=3 replicates)
C2C12 myofibroblast cells stably expressing firefly luciferase under the control of BMP-responsive promoter element (BRE-Luc) were generously provided by Dr. Peter ten Dijke (Leiden University Medical Center, NL). Human embryonic kidney 293T cells stably transfected with the TGF-β-responsive element fused to luciferase gene (CAGA-Luc) were a kind gift of Dr. Howard Weiner (Brigham and Women's Hospital, Boston, Mass.). C2C12 Bre-Luc and 293T CAGA-Luc cells were seeded at 20,000 cells in DMEM supplemented with 2% FBS per well in tissue culture treated 96-well plates (Costar® 3610; Corning). The cells were incubated for 1 h (37° C. and 10% CO2) and allowed to settle and attach. […]. Cells were then incubated for 30 min. […] Media was discarded and firefly luciferase activity was measured (Promega™) according to manufacturer's protocol. Light output was measured using a Spectramax™ L luminometer (Molecular Devices™) with an integration time of one second per well. […]

[3] = tested on: ACVR1^[R206H]FlEx/+] knock-in mice; experiment: ACVR1^[R206H]FlEx/+] knock-in mouse model of FOP
Protocol: Mice were maintained in accordance with Institutional Animal Care and Use Committee guidelines under approved experimental protocols. […] Heterotopic bone formation in these mice was introduced via single retro-popliteal injection of adenoviral Cre-recombinase at 1×10^8 PFU at postnatal day 7 (P7). […] Bone formation as a function of a loss of passive range of motion, via dorsiflexion of the left ankle joint was assessed daily. […] On day 35 for inducible ACVR1^Q207D mice, and on day 90-120 for inducible ACVR1^R206H mice were sacrificed and imaged via X-ray radiography (MS FX In-Vivo Pro: Carestream Health). Micro-computed tomography (micro-CT) imaging was carried out on samples fixed overnight in 1% paraformaldehyde followed by scanning (μCT35, ScanCo).

[4] = tested on: ACVR1^Q207D (CAG-Z-EGFP-caALK2) transgenic mice; experiment: Inducible ACVR1^Q207D-Tg (CAG-Z-EGFP-caALK2) mouse model of heterotopic ossification / FOP; settings: for heterotopic bone lesions on x-ray: 6 mg/kg i.p. twice daily; for passive range-of-motion: 6 mg/kg intraperitoneally twice daily
[5] = 25 mg/kg oral gavage daily for first 28 days only, observed up to 90 days
[6] = 25 mg/kg intraperitoneally twice daily for 28 days

CN1CCN(CCOc2cc(OC3CCOCC3)c3c(Nc4c(Cl)ccc5c4OCO5)ncnc3c2)CC1 [AZD-0530, N-(5-chloro-1,3-benzodioxol-4-yl)-7-[2-(4-methylpiperazin-1-yl)ethoxy]-5-[(tetrahydro-2H-pyran-4-yl)oxy]quinazolin-4-amine]
IC50 (ALK4/ACVR1B): 220 nM | IC50 (ALK5/TGFBR1): 220 nM | tolerability in healthy human adults [1]: good tolerability | decreased potency against all receptors compared with LDN-193189 [2]: approximately 10 fold | change in weight compared to vehicle treated controls ([3]; 25 mg/kg oral gavage daily for 28 days): No statistically significant change | progressive loss of range of motion [3, 5]: protected | radiographic bone formation [3, 5]: protected

c1ccc2c(-c3cnn4cc(-c5ccc(N6CCNCC6)cc5)cnc34)ccnc2c1 [LDN-193189]
heterotopic bone lesions on x-ray [4]: preventing heterotopic bone lesions | passive range-of-motion [4]: effective in preserving range of motion; also recorded: mobility was almost entirely preserved

c1cc(-c2cnn3cc(-c4ccc(N5CCNCC5)cc4)cnc23)c2cccnc2c1 [LDN-212854]
heterotopic bone lesions on x-ray [4]: preventing heterotopic bone lesions | passive range-of-motion [4]: effective in preserving range of motion; also recorded: mobility was almost entirely preserved

COc1cc2c(Nc3ccc(Br)cc3F)ncnc2cc1OCC1CCN(C)CC1 [ZD-6474]
radiographic heterotopic ossification [4, 6]: did not significantly attenuate; also recorded: no evidence of improvement | range-of motion [4, 6]: no evidence of improvement
